Measurements taken from patent US20220249511A1, “METHODS FOR THE TREATMENT OF KELOID, HYPERTROPHIC SCARS AND/OR HYPERPIGMENTATION DISORDERS” (INSERM (INSTITUT NATIONAL DE LA SANTÉ ET DE LA RECHERCHE …, priority 2019, published 2022).

Assays:
burn scar = test: PROS patient treated with oral BYL719: burn scar; format: in vivo, human; details: one PROS patient with a large burn scar on the left thigh, FIG. 2
Experimental: (§1) The cohort is composed by 19 patients including 15 children (ranging from 4 to 50 years old). Children received 50 mg daily while adults received 250 mg daily. BYL719 was delivered orally every morning with breakfast. Patients were followed at regular intervals:
(§2) weekly for 8 weeks, every two weeks for 1 month and then monthly. All patients underwent clinical examination, and areas of overgrowth, nevi as well as visible scars were photographed before and after BYL719 introduction. All pictures were taken by a single operator, always using the same camera (12-megapixel camera), in the same room and at the same distance. […] Length and surface of the scars were measured using Image J.

[1] = tested on: primary fibroblasts derived from pathological scars; test: Proliferation of primary fibroblasts derived from pathological scars; format: cell-based, human; details: exposed 24 h, vs DMSO, FIG. 3B
Experimental: (§3) Paraffin-embedded kidney sections (4-um) were incubated with anti-P-AKT (Ser473) antibody (Cell Signaling Technology, ref# 4060), anti-P-S6RP antibody (Cell Signaling Technology, ref# 5364), anti-a-smooth muscle cell antibody (Sigma Aldrich, ref# A5228), and anti-KI67 antibody (Thermo Fisher Scientific, ref# RM-9106-51) Immunofluorescence studies were analyzed using a Zeiss LSM 700 confocal microscope.
(§4) Skin samples (hypertrophic, keloids and burn scars) were collected during surgical procedures. To generate dermal fibroblast cultures, skin samples were minced and incubated at room temperature in 0.05% trypsin-EDTA (ThermoFisher) solution for 30 min with gentle shaking. Cells were collected by centrifuging at 700 g for 10 min, resuspended in cell culture media containing 25% FBS, and plated onto 24 well plates to establish lines. Fibroblast cultures were grown and maintained in 1× MEM (Corning) supplemented with 25% FBS and penicillin/streptomycin (Corning) to a final concentration of 100 IU penicillin and 500 μg.mL-1 streptomycin.
(§5) Cells at similar population doubling were plated 1:4 from confluent cultures and allowed to grow until ˜80% confluent. Cells were then starved during 12 hours and exposed during 24 h to either BYL719 (0.1 or 1 μmol.L-1; MedChem Express), taselisib (0.1 or 2. μmol.L-1; MedChem Express) or miransertib (0.1 or […]) or equal volume of DMSO. We also performed ex vivo keloid scars culture. Keloids were exposed during 24h to either BYL719 (0.1 or 1 μmol.L-1; MedChem Express) or equal volume of DMSO.

Tgfβ mRNA [2] = test: Tgfβ mRNA expression in ex vivo keloid scars culture; format: cell-based, human; details: ex vivo keloids exposed 24h to 0.1 or 1 μmol.L-1, vs DMSO; FIG. 3F
Experimental: as §5
(§6) Total RNA was isolated from snap-frozen kidneys using the TRIzol reagent (Sigma) according to the manufacture's protocol. First-strand cDNA was synthesized using the MML-V reverse transcriptase (Promega, USA). Real-time PCR was performed using the iQ-SYBR Green supermix (BioRad) and the iQ5 Multicolor Real-Time PCR Detection System (BioRad) for mRNA detection. 18S rRNA was used as a house keeping gene.

AKT/mTOR pathway [3] = test: Western blot of ex vivo keloid scars culture; format: cell-based, human; details: ex vivo keloids exposed 24h to 0.1 or 1 μmol.L-1, vs DMSO; FIG. 3D
Experimental: as §5
(§7) Western blots were performed as previously described^31. Briefly, protein extracts from the scars and primary culture of fibroblasts were resolved by SDS-PAGE before being transferred onto the appropriate membrane and incubated with anti-P-AKT (Ser473) antibody (Cell Signaling Technology, ref# 4060), anti-P-S6RP antibody (Cell Signaling Technology, ref# 5364) and anti-GAPDH (Merck Millipore, ref#374), followed by the appropriate peroxidase-conjugated secondary antibody. Chemiluminescence was acquired using a Fusion FX7 camera (Vilbert Lourmat) and densitometry was performed using the Bio1D software (Certain Tech).

nevi = test: Cohort of PROS patients treated with oral BYL719: nevus color (visual scale); format: in vivo, human; details: arbitrary visual scale 5: dark color to 1: normal skin color, FIG. 1
Experimental: as §1, §2
As shown on FIG. 1, inventors have observed that during treatment with oral BYL719, the length, the area and the thickness of the different scars were dramatically reducing without additional treatment. […] Nevus color was evaluated using an arbitrary visual scale ranging from (5: dark color to 1: normal skin color).

Tgfβ mRNA [4] = test: Tgfβ mRNA expression in primary fibroblasts derived from pathological scars; format: cell-based, human; details: exposed 24 h, vs DMSO, FIG. 3C
Experimental: as §4, §5, §6

keloids = test: Proliferation rate in ex vivo keloid scars culture; format: cell-based, human; details: ex vivo keloids exposed 24h to 0.1 or 1 μmol.L-1, vs DMSO; FIG. 3E
Experimental: as §3, §5

AKT/mTOR pathway [5] = test: Western blot of P-AKT and P-S6RP in primary fibroblasts derived from pathological scars; format: cell-based, human; details: starved 12 hours, exposed 24 h, vs DMSO, FIG. 3A
Experimental: as §4, §5
Cultures were rinsed with 1X PBS, treated for 10 min with 0.05% Trypsin, collected by centrifugation at 4° C., and pellets were flash frozen on dry ice. Protein lysates were collected by directly adding 1× RIPA buffer containing protease and phosphatase inhibitors. Each experiment was performed in duplicate and repeated at least three times
as §7, with “Chemiluminescence was acquired using a Fusion FX7 camera (Vilbert Lourmat) and densitometry was performed using the Bio1D software (Certain Tech).” left out

[6] = tested on: hypertrophic and keloids scars; test: Cohort of PROS patients treated with oral BYL719: hypertrophic and keloid scars; format: in vivo, human; details: daily dose of 250 mg in adults or 50 mg in children, FIG. 1
Experimental: as §1, §2

| SMILES | size of the burn scar (burn scar) | proliferation [1] | Tgfβ mRNA expression (Tgfβ mRNA [2]) | AKT/mTOR pathway (Western blot) (AKT/mTOR pathway [3]) | nevus color (nevi) | mRNA expression of Tgfβ, a marker of fibrosis (Tgfβ mRNA [4]) | proliferation rate (keloids) | AKT/mTOR pathway (P-AKT and P-S6RP in WB) (AKT/mTOR pathway [5]) | length of the hypertrophic and keloids scars [6] | surface area of the hypertrophic and keloids scars [6] | thickness of the hypertrophic and keloids scars [6] |
| --- | --- | --- | --- | --- | --- | --- | --- | --- | --- | --- | --- |
| Cc1nc(NC(=O)N2CCC[C@H]2C(N)=O)sc1-c1ccnc(C(C)(C)C(F)(F)F)c1 [BYL719, Alpelisib] | reduction in size | reduced | reduce | inhibits | spontaneously decolorating | reduced | reduce | efficiently block | progressive improvement | progressive improvement | progressive improvement |
| Nc1ncccc1-c1nc2ccc(-c3ccccc3)nc2n1-c1ccc(C2(N)CCC2)cc1 [miransertib, Miransertib] | – | reduced | – | – | – | reduced | – | efficiently block | – | – | – |
| Cc1nc(-c2cn3c(n2)-c2ccc(-c4cnn(C(C)(C)C(N)=O)c4)cc2OCC3)n(C(C)C)n1 [taselisib, Taselisib] | – | reduced | – | – | – | reduced | – | efficiently block | – | – | – |
